Assay results as given in US20130158075A1, “HETEROCYCLIC COMPOUNDS AS DGAT1 INHIBITORS” (PIRAMAL ENTERPRISES LIMITED, priority 2010, published 2013).

Biological target: T1, hDGAT1 (Homo sapiens, UniProt O75907)
T1 construct: made in house; host or cells: Sf9 insect cells (baculovirus); microsomal fraction
T1 sequence (O75907 1-488): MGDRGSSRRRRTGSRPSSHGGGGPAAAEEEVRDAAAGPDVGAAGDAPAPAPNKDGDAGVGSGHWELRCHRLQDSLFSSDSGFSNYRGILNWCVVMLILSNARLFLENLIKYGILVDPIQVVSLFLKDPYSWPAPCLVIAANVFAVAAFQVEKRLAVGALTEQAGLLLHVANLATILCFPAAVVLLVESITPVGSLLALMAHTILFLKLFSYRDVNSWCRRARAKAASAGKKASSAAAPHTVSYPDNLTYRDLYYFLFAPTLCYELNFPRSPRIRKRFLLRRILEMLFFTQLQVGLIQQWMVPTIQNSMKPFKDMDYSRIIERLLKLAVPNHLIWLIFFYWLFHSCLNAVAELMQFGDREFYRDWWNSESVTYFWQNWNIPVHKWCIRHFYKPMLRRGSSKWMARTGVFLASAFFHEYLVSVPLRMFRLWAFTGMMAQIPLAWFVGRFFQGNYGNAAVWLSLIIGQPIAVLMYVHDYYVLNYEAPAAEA
Test: In-vitro DGAT1 assay with hDGAT1 microsomes from Sf9 cells (14C oleoyl CoA, scintillation counting)
Format: biochemical
Settings: for inhibition at 1 µM: read-out: Percentage inhibition of hDGAT1; for Percentage inhibition of hDGAT1: at 1 μM
Method: Sf9 cells were grown in T25 flasks containing Graces's Insect media with 10% FBS with antibiotic (100 units/mL penicillin, 100 μg/mL streptomycin sulphate, 0.25 μg/mL Amptotericin B as Fungizone) grown in a 27° C. incubator.
hDGAT10RF expression clone (RZPDo839C09146 in pDEST vector) was obtained from RZPD, German Science Center for Genomes research, Germany. hDGAT1 bacmid DNA was obtained by transformation of the hDGAT1 expression clone into DH10Bac E. coli competent cells. Approximately 1 μg of hDGAT1 bacmid DNA was infected into Sf9 cells with Cellfectin (Invitrogen) reagent. Following infection, Sf9 cells were incubated at 27° C. for 30 min. Five hours after infection, the media was replaced with growth media containing antibiotics (100 units/mL penicillin, 100 μg/mL streptomycin sulphate, 0.25 μg/mL Amptotericin B as Fungizone) and incubated at 27° C. for 72 h. The supernatant containing the virus was centrifuged at 1500×g for 5 min, passed through 0.22 μm filter, and subsequently stored at 4° C. The virus was further amplified three more times by re-infection of Sf9 cells and the viral titer was determined by plaque assay.
Sf9 cells were seeded in spinner flasks on day 0 at a cell density of 1×10^6 and infected on day 1 with hDGAT1 baculovirus at a multiplicity of infection (MOI) of 5 and a cell density of 2×10^6. On day 3 (or 66-72 h), cells were harvested and centrifuged at 2500×g for 10 min. Pellet was resuspended in lysis buffer (100 mM sucrose, 50 mM KCl, 40 mM KH2PO4, 30 mM EDTA, pH 7.2) and passed through 21-gauge needle approximately 10 times. The mixture was centrifuged at 12,000 rpm in a Sigma 12158-H rotor at 4° C. for 30 min. The supernatant was subjected to centrifugation at 35,000 rpm in a Beckman Ti-45 rotor at 4° C. for 1 h. The resultant pellet containing the microsomes wasere resuspended overnight in 1 mL of lysis buffer and total protein concentration was estimated using Bradford Reagent. Microsomes were aliquoted and stored at −80° C.
Frozen aliquots of hDGAT1 containing microsomes were thawed (5-10 mg/mL total protein) on ice and diluted to a working stock of 1 mg/mL with DGAT Assay Buffer (DAB). The DGAT reaction assay was performed by following the procedure described in U.S. Pat. No. 6,607,893 with some modifications that are described below.
1 mL stock solution of DGAT1 substrate mixture contains 5.6 μL of ^14C oleoyl CoA (16.8 nCi) and […] of 1,2-dioleoyl-sn-glycerol (1228.5 μM) 1,2-dioleoyl-sn-glycerol stock (19.5 mM) was prepared by dissolving 25 mg of 1,2-dioleoyl-sn-glycerol (Sigma, US) in 2060 μL of acetone.
The assay was performed in duplicates in a reaction volume of 100 μL.
The reaction was started by the addition of 2.5 μL of 1 mg/mL of microsomes (iv) to the mixture of (i), (ii) and (iii), and incubated at 37° C. for 10 min. The reaction was stopped by the addition of 300 μL of Alkaline Ethanol Stop Solution Mix [AESSM; 12.5% of 100% non-denatured ethanol, 10% deionized water, 2.5% 1N NaOH, 75% stop solution (78.4% isopropanol, 19.6% n-heptane, 2% deionized water)] followed by addition of 600 μL of n-heptane. The mixture was vortexed and the triglycerides formed were extracted into the organic heptane phase. 250 μL of the heptane phase was added into 4 mL scintillation cocktail (66.72% toluene, 33.3% TritonX-100, 0.5% PPO, 0.02% POPOP) and counted on a liquid scintillation counter for 1 min. Data was collected and plotted as a function of concentration in nM versus percentage inhibition of hDGAT1 by the compounds of present invention.

| Compound | inhibition at 1 µM [%] | Percentage inhibition of hDGAT1 |
| --- | --- | --- |
| CC(C)(CC(=O)O)Cc1ncc(-c2ccc(NC(=O)Nc3cccc(C(F)(F)F)c3)cc2)s1 [Example 69, 3,3-Dimethyl-4-(5-(4-(3-(3-(trifluoromethyl)phenyl)ureido)phenyl)thiazol-2-yl)butanoic acid] | > 50 |  |
| CC(C)(CC(=O)O)Cc1ncc(-c2ccc(NC(=O)Nc3ccccc3Cl)cc2)s1 [Example 71, 4-(5-(4-(3-(2-Chlorophenyl)ureido)phenyl)thiazol-2-yl)-3,3-dimethyl butanoic acid] | > 50 |  |
| CC(C)(CC(=O)O)Cc1ncc(-c2ccc(NC(=O)Nc3ccc(Cl)cc3Oc3ccccc3)cc2)s1 [Example 73, 4-(5-(4-(3-(4-Chloro-2-phenoxyphenyl)ureido)phenyl)thiazol-2-yl)-3,3-dimethyl butanoic acid] | > 50 |  |
| CC(C)(CC(=O)O)Cc1ncc(-c2ccc(NC(=O)c3ccc(C(C)(C)C)cc3)cc2)s1 [Example 75, 4-(5-(4-(4-tert-Butylbenzamido)phenyl)thiazol-2-yl)-3,3-dimethylbutanoic acid] | > 50 |  |
| CC(C)(CC(=O)O)Cc1ncc(-c2ccc(NC(=O)c3ccc(-c4ccccc4)cc3)cc2)s1 [Example 77, 4-(5-(4-Biphenyl-4-ylcarboxamidophenyl)thiazol-2-yl)-3,3-dimethylbutanoic acid] |  | ++ (>50 % Inhibition) |
| CCCCCc1ccc(C(=O)Nc2ccc(-c3cnc(CC(C)(C)CC(=O)O)s3)cc2)cc1 [Example 79, 3,3-Dimethyl-4-(5-(4-(4-pentylbenzamido)phenyl)thiazol-2-yl)butanoic acid] | > 50 |  |
| COc1ccc(S(=O)(=O)Nc2ccc(-c3cnc(CC(C)(C)CC(=O)O)s3)cc2)c(OC)c1 [Example 81, 4-(5-(4-(2,4-Dimethoxyphenylsulfonamido)phenyl)thiazol-2-yl)-3,3-dimethylbutanoic acid] | 20 to 50 |  |
| CC(C)(CCc1ncc(-c2ccc(NC(=O)Nc3cccc(C(F)(F)F)c3)cc2)s1)C(=O)O [Example 88, 2,2-Dimethyl-4-(5-(4-(3-(3-(trifluoromethyl)phenyl)ureido)phenyl)thiazol-2-yl)butanoic acid] | > 50 |  |
| CC(C)(CCc1ncc(-c2ccc(NC(=O)Nc3ccccc3Cl)cc2)s1)C(=O)O [Example 90, 4-(5-(4-(3-(2-Chlorophenyl)ureido)phenyl)thiazol-2-yl)-2,2-dimethylbutanoic acid] | > 50 |  |
| CC(C)(CCc1ncc(-c2ccc(NC(=O)Nc3ccc(Cl)cc3Oc3ccccc3)cc2)s1)C(=O)O [Example 92, 4-(5-(4-(3-(4-Chloro-2-phenoxyphenyl)ureido)phenyl)thiazol-2-yl)-2,2-dimethylbutanoic acid] | > 50 |  |
| CC(C)(CCc1ncc(-c2ccc(NC(=O)NC3CCCCC3)cc2)s1)C(=O)O [Example 94, 4-(5-(4-(3-Cyclohexylureido)phenyl)thiazol-2-yl)-2,2-dimethyl butanoic acid] | > 50 |  |
| COC(=O)C(C)(C)CCc1ncc(-c2ccc(NC(=O)Nc3ccc(F)cc3)cc2)s1 [Example 96, Methyl 4-(5-(4-(3-(4-fluorophenyl)ureido)phenyl)thiazol-2-yl-2,2-dimethyl butanoate] |  | ++ (>50 % Inhibition) |
| COc1ccc(NC(=O)Nc2ccc(-c3cnc(CCC(C)(C)C(=O)O)s3)cc2)cc1 [Example 98, 4-(5-(4-(3-(4-Methoxyphenyl)ureido)phenyl)thiazol-2-yl)-2,2-dimethyl butanoic acid] | > 50 |  |
| CC(C)(CCc1ncc(-c2ccc(NC(=O)c3ccc(C(C)(C)C)cc3)cc2)s1)C(=O)O [Example 106, 4-(5-(4-(4-tert-Butylbenzamido)phenyl)thiazol-2-yl)-2,2-dimethylbutanoic acid] | > 50 |  |
| CC(C)(CCc1ncc(-c2ccc(NC(=O)c3ccc(-c4ccccc4)cc3)cc2)s1)C(=O)O [Example 108, 4-(5-(4-Biphenyl-4-ylcarboxamidophenyl)thiazol-2-yl)-2,2-dimethylbutanoic acid] |  | ++ (>50 % Inhibition) |
| CC(C)(Cc1ncc(-c2ccc(NC(=O)Nc3ccc(Cl)cc3Oc3ccccc3)cc2)o1)C(=O)O [Example 124, 3-(5-(4-(3-(4-Chloro-2-phenoxyphenyl)ureido)phenyl)oxazol-2-yl)-2,2-dimethyl propanoic acid] | > 50 |  |
| CC(C)(Cc1ncc(-c2ccc(NC(=O)c3ccc(-c4ccccc4)cc3)cc2)o1)C(=O)O [Example 128, 3-(5-(4-Biphenyl-4-ylcarboxamidophenyl)oxazol-2-yl)-2,2-dimethylpropanoic acid] |  | + (20-50% Inhibition) |
| O=C(Nc1ccc(-c2cnc(C3CCC(C(=O)O)CC3)s2)cc1)Nc1cccc(C(F)(F)F)c1 (stereo not shown) [Example 134, 4-(5-(4-(3-(3-(Trifluoromethyl)phenyl)ureido)phenyl)thiazol-2-yl)cyclohexane carboxylic acid] | > 50 |  |
| Cc1ccc(NC(=O)Nc2ccc(-c3cnc(C4CCC(C(=O)O)CC4)s3)cc2)cc1 (stereo not shown) [Example 136, 4-(5-(4-(3-p-Tolylureido)phenyl)thiazol-2-yl)cyclohexanecarboxylic acid] | > 50 |  |
| O=C(Nc1ccc(-c2cnc(C3CCC(C(=O)O)CC3)s2)cc1)Nc1ccc(F)cc1F (stereo not shown) [Example 138, 4-(5-(4-(3-(2,4-Difluorophenyl)ureido)phenyl)thiazol-2-yl)cyclohexane carboxylic acid] | > 50 |  |
| O=C(Nc1ccc(-c2cnc(C3CCC(C(=O)O)CC3)s2)cc1)Nc1ccccc1F (stereo not shown) [Example 140, 4-(5-(4-(3-(2-Fluorophenyl)ureido)phenyl)thiazol-2-yl)cyclohexanecarboxylic acid] | > 50 |  |
| O=C(Nc1ccc(-c2cnc(C3CCC(C(=O)O)CC3)s2)cc1)NC1CCCCC1 (stereo not shown) [Example 142, 4-(5-(4-(3-Cyclohexylureido)phenyl)thiazol-2-yl)cyclohexanecarboxylic acid] | > 50 |  |
| O=C(Nc1ccc(-c2cnc(C3CCC(C(=O)O)CC3)s2)cc1)Nc1cccc(Cl)c1 (stereo not shown) [Example 144, 4-(5-(4-(3-(3-Chlorophenyl)ureido)phenyl)thiazol-2-yl)cyclohexane carboxylic acid] | > 50 |  |
| O=C(Nc1ccc(Cl)cc1)Nc1ccc(-c2cnc(C3CCC(C(=O)O)CC3)s2)cc1 (stereo not shown) [Example 146, 4-(5-(4-(3-(4-Chlorophenyl)ureido)phenyl)thiazol-2-yl)cyclohexane carboxylic acid] | > 50 |  |
| O=C(Nc1ccc(-c2cnc(C3CCC(C(=O)O)CC3)s2)cc1)Nc1ccc(C(F)(F)F)cc1Cl (stereo not shown) [Example 148, 4-(5-(4-(3-(2-Chloro-4-(trifluoromethyl)phenyl)ureido)phenyl)thiazol-2-yl)cyclohexanecarboxylic acid] | > 50 |  |
